Patent publication US20230312587A1, “PTERIDINONE COMPOUNDS AND USES THEREOF” (Vertex Pharmaceutical Incorporated, priority 2018, published 2023)
Where two headings read alike, the source gives them in different places.

Columns and labels:
[1] = test system: Colo205-TCF/LEF-Luciferase (Luc) tumor; assay: In vivo inhibition of TCF/LEF reporter activity in Colo-205 tumors; parameters: concentration or dose not given beside the values; details: TCF/LEF luciferase reporter in Colo-205 tumors, nu/nu mice, oral gavage
Protocol: Colo205-TCF/LEF-Luciferase (Luc) tumor cells were expanded in complete DMEM cell culture media [DMEM (Life Technologies, product #11960-051) media supplemented with 10% FBS (Hyclone, catalog #SH30071.03), antimycotic/antibiotic (Life Technologies, product #15240-062), and Glutamax (Life Technologies, product #35050-061)] with 1 ug/ml puromycin. After reaching confluency/high density, the loosely attached cells in media were transferred from the flask to 50 ml conical tubes. Tumor cells adhered to plastic were detached with trypsin and combined with cells in the conical tubes. The tumor cells were triturated, counted, and pelleted by centrifugation. Cell pellets were resuspended in 0.9% injectable saline (6×10^7 cells/ml). A 50 ul volume (3×10^6 cells) was injected subcutaneously in the flanks of 4-6 wk old female nu/nu mice (Charles River Laboratories). Approximately 13-16 days after implantation, tumors between 200-500 mm^3 were selected (based on caliper measurements and applying the formula […]) and randomized into groups of n=4. Mice were dosed by oral gavage with compound dissolved in 1:3:5:1 EtOH:DMSO:PEG-400:H2O at a rate of 10 ml/kg or 1:3:5:1 EtOH:DMSO:PEG-400:H2O alone (Vehicle Control). Tumors were collected from mice euthanized by CO2 inhalation and snap frozen in liquid nitrogen. Tumors were stored in a −80 degrees C. freezer until they were processed.
Tumors were thawed on ice and homogenized in cold Lysis Buffer (20 mM Tris-HCl (pH 7.5), 150 mM NaCl, 1 mM Na2EDTA, 1 mM EGTA, 1% Triton, 2.5 mM sodium pyrophosphate, 1 mM beta-glycerophosphate, 1 mM Na3VO4, 1 μg/ml leupeptin, 0.05% SDS) using a closed tissue grinder system (Fisher Scientific, Cat #02-542-09) on ice according to manufacturer's instructions. For 100 mg of tumor, 500 uL of Lysis Buffer was used. Tumor lysate was transferred to a pre-chilled microcentrifuge tube and centrifuged at 10,000×g for 10 minutes at 4 degrees C. Supernatant was transferred to a new pre-chilled microcentrifuge tube and was used immediately for analysis of protein content and luciferase activity.
Protein content of tumor lysate supernatant was determined using the BCA assay (Life Technologies Cat #23225). Luciferase activity of tumor lysate supernatant was determined by addition of Steady-Glo luminescence reagent (Promega, Cat #E2550) according to manufacturer's instructions and measurement on a Pherastar luminescence plate reader (BMG Labtech). Luciferase activity was normalized to protein content.

[2] = test system: β-catenin-TCF-mediated reporter transcription activity in Colo 205 cells; assay: Colo 205 reporter assay (TCF/LEF luciferase); assay type: cell-based; details: Homo sapiens, COLO 205, 5 h, five hours after addition of compound
Outline: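 Luciferase signal from a TCF/LEF-driven reporter, stably integrated in Colo 205 colon cancer cells, was measured 5 h after compound addition.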

[3] = biological target: HEK293 membranes over-expressing WFS-1 (Homo sapiens (Human), UniProt O76024); assay: Radioligand displacement assay (tritiated Compound 136 probe); assay type: binding; details: displacement of tritiated Compound 136
Protocol: Cell pellets were re-suspended in 15 times packed cellular volume in 4° C. hypotonic lysis buffer (10 mM HEPES, pH 7.5 containing 1×Protease inhibitor, 0.5 mM EDTA and 2 mM DTT). Re-suspended cells were homogenized with 6-8 strokes in a dounce homogenizer kept on ice. Lysates were centrifuged at 500×G for 15 minutes at 4° C. without brake to decelerate rotor. Following centrifugation, remove the supernatant to a fresh tube and place on ice (Supernatant 1). Repeat the above steps on the lysed cell pellet using 0.5 the original volume of hypotonic lysis buffer and remove the 500× G supernatant (Supernatant 2) and combine with Supernatant 1. Transfer the combined supernatants to a 45-Ti ultracentrifuge tube and centrifuge at 100,000× G for 30 minutes. Following ultracentrifugation, carefully remove the supernatant and discard. Resuspend the 100,000× G pellet in cold resuspension buffer (10 mM HEPES, pH 7.5, 300 mM NaCl containing 1× Protease inhibitor, 1× EDTA and 2 mM DTT). Centrifuge sample at 500× G for 10 minutes with no brake and remove any cloudy, flocculent material. Resuspend pellet in resuspension buffer to approximately 2 mg/mL of protein concentration for use in radioligand binding assay and immunoblotting.
The binding affinities of compounds were determined by measuring the competitive displacement of a tritiated Compound 136 probe from purified HEK293 membranes over-expressing WFS-1. The data for the radioligand displacement assay are summarized in Table 47: A<0.06 μM; 0.06 μM≤B<0.6 μM; 0.6 μM≤C<3.0 μM; D≥3.0 μM.
The probe Kd was determined by titrating tritiated probe under the standard assay conditions plus and minus excess unlabeled probe and fitting the resulting data to a “One site—Total and nonspecific binding” model in Graphpad Prism, version 6.0, San Diego, CA, US. Initially, 0.25 μl of compound dissolved in DMSO at varying concentrations was dispensed to a 384 well plate. Membrane and probe were both prepared at 2× their final concentration in 1× assay buffer as described above. 25 μL of membrane was added to the wells and incubated for 10 minutes. 25 μL of diluted probe was then added to the wells. The assay was incubated for 90 minutes at room temperature. The entire assay volume was then transferred to Millipore GF/B 384-well plates pretreated with 15 μL 0.5% PEI. The filter plates were washed 3× with 75 μL 25 mM TRIS, ph7.5, 0.1% BSA and then dried overnight. Following addition of 45 μL UltimaGold scintillant, the samples were counted in a Perkin Elmer Topcount. The radioactivity remaining is a measure of bound probe. From the bound probe vs concentration of compound titration curve, the IC50 is determined by fitting the data to a standard 3 parameter IC50 model using either Graphpad Prism, version 6.0, San Diego, CA, US, or using GeneData Analyzer, Basel, Switzerland.

Colo-205 cells = assay: Calcium flux assay (FLIPR Calcium 5); assay type: cell-based; details: Homo sapiens, COLO 205, 0.6 h, FLIPR Calcium 5, measured over 36 minutes
Protocol: Compounds described herein induced ER stress by causing intracellular calcium flux. Calcium flux was measured in Colo-205 cells using the FLTPR® Calcium 5 Assay Kit according to manufacter's protocol (Molecular Devices, Cat. #R8186) on a FLIPR3 system (Molecular Devices). Calcium flux is measured over 36 minutes. The Colo-205 calcium flux assay data are summarized in Table 47: A<0.6 μM; 0.6 μM≤B<2.0 μM; 2.0 μM≤C<10.0 μM; D≥10.0 μM.

[4] = Colo 205 TCF/LEF luciferase reporter, read-out: TCF reporter Colo205 IC50

Sequence of HEK293 membranes over-expressing WFS-1 (O76024 whole entry): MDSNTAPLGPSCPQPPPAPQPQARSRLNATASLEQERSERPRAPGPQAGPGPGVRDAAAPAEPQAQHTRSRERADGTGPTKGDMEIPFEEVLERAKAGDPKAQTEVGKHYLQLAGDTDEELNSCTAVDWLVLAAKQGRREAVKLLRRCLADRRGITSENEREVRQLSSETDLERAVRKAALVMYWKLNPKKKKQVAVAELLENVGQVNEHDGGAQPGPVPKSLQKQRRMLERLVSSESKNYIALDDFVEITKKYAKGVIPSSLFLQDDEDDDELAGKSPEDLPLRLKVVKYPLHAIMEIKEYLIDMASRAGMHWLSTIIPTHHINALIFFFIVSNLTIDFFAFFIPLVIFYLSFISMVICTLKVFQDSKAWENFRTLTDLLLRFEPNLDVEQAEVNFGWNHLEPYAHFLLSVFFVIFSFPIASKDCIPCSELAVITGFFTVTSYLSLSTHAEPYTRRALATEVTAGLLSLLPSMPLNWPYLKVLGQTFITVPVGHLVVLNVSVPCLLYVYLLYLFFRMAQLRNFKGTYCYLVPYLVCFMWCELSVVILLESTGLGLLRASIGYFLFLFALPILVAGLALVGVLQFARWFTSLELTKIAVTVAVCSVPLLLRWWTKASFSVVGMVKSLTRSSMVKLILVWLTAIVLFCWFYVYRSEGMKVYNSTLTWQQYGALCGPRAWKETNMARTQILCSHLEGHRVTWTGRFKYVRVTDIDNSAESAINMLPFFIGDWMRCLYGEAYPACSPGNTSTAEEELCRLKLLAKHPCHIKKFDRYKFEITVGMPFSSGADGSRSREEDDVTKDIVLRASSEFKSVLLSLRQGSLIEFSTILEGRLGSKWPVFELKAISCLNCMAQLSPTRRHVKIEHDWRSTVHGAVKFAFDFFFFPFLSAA

Row | SMILES | Percent Remaining Activity at 8 hrs after Dosing [1] [%] | IC50 [2, 4] [nM] | IC50 [3] [nM] | EC50 (Colo-205 cells) [nM] | IC50 ([2]; Colo 205 cells with stably transfected TCF/LEF luciferase reporter, read-out: TCF reporter Colo205) [nM]
1 | Cc1nc(NCc2cnn(Cc3ccnc(C(F)(F)F)c3)c2)nc2c1NC(=O)[C@H](C1CC1)N2C [Compound 455, (S)-7-cyclopropyl-4,8-dimethyl-2-(((1-((2-(trifluoromethyl)pyridin-4-yl)methyl)-1H-pyrazol-4-yl)methyl)amino)-7,8-dihydropteridin-6(5H)-one] | 63 | < 300 | – | – | –
2 | Cc1nc(N[C@H]2C[C@@H](Cn3nccc3C(F)(F)F)C2)nc2c1NC(=O)[C@H](COC(C)(C)C)N2C [Compound 723, (S)-7-(tert-butoxymethyl)-4,8-dimethyl-2-((cis-3-((5-(trifluoromethyl)-1H-pyrazol-1-yl)methyl)cyclobutyl)amino)-7,8-dihydropteridin-6(5H)-one] | – | < 300 | 60 to 600 | 600 to 2000 | –
3 | Cc1nc(N[C@H]2C[C@H](Oc3cc(F)c(F)c(F)c3)C2)nc2c1NC(=O)[C@H](CO)N2C [Compound 677, (S)-7-(hydroxymethyl)-4,8-dimethyl-2-((trans-3-(3,4,5-trifluorophenoxy)cyclobutyl)amino)-7,8-dihydropteridin-6(5H)-one] | – | < 300 | 60 to 600 | – | –
4 | Cc1nc(N[C@H]2C[C@@H](CNc3cnc(C(F)(F)F)cn3)C2)nc2c1NC(=O)[C@H](C(C)C)N2C [Compound 711, (S)-7-isopropyl-4,8-dimethyl-2-((cis-3-(((5-(trifluoromethyl)pyrazin-2-yl)amino)methyl)cyclobutyl)amino)-7,8-dihydropteridin-6(5H)-one] | – | < 300 | < 60 | < 600 | –
5 | Cc1nc(N[C@H]2C[C@@H](Nc3ccc(C#N)cn3)C2)nc2c1NC(=O)[C@H](C(C)C)N2C [Compound 716, 6-((cis-3-(((S)-7-isopropyl-4,8-dimethyl-6-oxo-5,6,7,8-tetrahydropteridin-2-yl)amino)cyclobutyl)amino)nicotinonitrile] | – | < 300 | < 60 | 600 to 2000 | –
6 | Cc1nc(N[C@H]2C[C@H](Oc3ccc(C(F)(F)F)nc3)C2)nc2c1NC(=O)[C@H](C(C)C)N2C [Compound 685, (S)-7-isopropyl-4,8-dimethyl-2-((trans-3-((6-(trifluoromethyl)pyridin-3-yl)oxy)cyclobutyl)amino)-7,8-dihydropteridin-6(5H)-one] | – | < 300 | < 60 | < 600 | –
7 | CO[C@H](C)[C@H]1C(=O)Nc2c(C)nc(N[C@H]3C[C@H](Oc4ccc(C(F)(F)F)nc4)C3)nc2N1C [Compound 684, (S)-7-((R)-1-methoxyethyl)-4,8-dimethyl-2-((trans-3-((6-(trifluoromethyl)pyridin-3-yl)oxy)cyclobutyl)amino)-7,8-dihydropteridin-6(5H)-one] | – | < 300 | < 60 | < 600 | –
8 | Cc1nc(N[C@@H](C)c2cnn(Cc3ccc(C(F)(F)F)nc3)c2)nc2c1NC(=O)[C@H](C)N2C [Compound 216, (7S)-4,7,8-Trimethyl-2-(((S)-1-(1-((6-(trifluoromethyl)pyridin-3-yl)methyl)-1H-pyrazol-4-yl)ethyl)amino)-7,8-dihydropteridin-6(5H)-one] | – | ≥ 5000 | ≥ 3000 | ≥ 10000 | –
9 | CC[C@H]1C(=O)Nc2c(C)nc(N[C@H]3C[C@H](Oc4ccc(C(F)(F)F)nc4)C3)nc2N1C [Compound 686, (S)-7-ethyl-4,8-dimethyl-2-((trans-3-((6-(trifluoromethyl)pyridin-3-yl)oxy)cyclobutyl)amino)-7,8-dihydropteridin-6(5H)-one] | – | < 300 | < 60 | < 600 | –
10 | Cc1nc(N[C@H]2C[C@@H](Nc3ncc(C#N)cn3)C2)nc2c1NC(=O)[C@H](C(C)C)N2C [Compound 717, 2-((cis-3-(((S)-7-isopropyl-4,8-dimethyl-6-oxo-5,6,7,8-tetrahydropteridin-2-yl)amino)cyclobutyl)amino)pyrimidine-5-carbonitrile] | – | 1000 to 5000 | 60 to 600 | 2000 to 10000 | –
11 | Cc1nc(N[C@H]2C[C@H](Oc3ccc(OC(F)(F)F)c(F)c3)C2)nc2c1N(C)C(=O)[C@H](C)N2C [Compound 360, (7S)-2-((trans 3-(3-fluoro-4-(trifluoromethoxy)phenoxy)cyclobutyl)amino)-4,5,7,8-tetramethyl-7,8-dihydropteridin-6(5H)-one] | – | < 300 | – | – | –
12 | COC(=O)N(Cc1cnn(Cc2ccc(C(F)(F)F)nc2)c1)c1nc(C)c2c(n1)N(C)[C@@H](C)C(=O)N2 [Compound 407, methyl (7S)-((1-((6-(trifluoromethyl)pyridin-3-yl)methyl)-1H-pyrazol-4-yl)methyl)(4,7,8-trimethyl-6-oxo-5,6,7,8-tetrahydropteridin-2-yl)carbamate] | – | – | – | – | ≥ 5000
13 | Cc1nc(NCc2cnn(-c3ccc(C(F)(F)F)nc3)c2)nc2c1NC(=O)[C@H](C)N2C [Compound 468, (S)-4,7,8-trimethyl-2-(((1-(6-(trifluoromethyl)pyridin-3-yl)-1H-pyrazol-4-yl)methyl)amino)-7,8-dihydropteridin-6(5H)-one] | – | < 300 | – | – | –
14 | Cc1nc(N[C@H]2C[C@H](Oc3ccc(F)c(F)c3F)C2)nc2c1N(C)C(=O)[C@H](C)N2C [Compound 293, (7S)-4,5,7,8-tetramethyl-2-((trans-3-(2,3,4-trifluorophenoxy)cyclobutyl)-amino)-7,8-dihydropteridin-6(5H)-one] | – | < 300 | – | – | –
